# Test results as given in patent US12077503B2, “Substituted cyclic amides and their use as herbicides” (FMC CORPORATION, priority 2015, dated 2024).
# Experiments:
# Experiment in all cases: Test C preemergence
# Format in all cases: in vivo
# [1] = system: blackgrass (Alopecurus myosuroides); details: for Plant response rating, Blackgrass: scale 0 to 100, 0 no effect, 100 complete control
# Outline: (§1)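 Scores of 0 to 100 reflect visual comparison with control plants, where 0 means no effect and 100 complete control, made 13 to 15 d after treatment. Application was preemergence to seeds in loam-sand soil or postemergence to plants 2 to 18 cm tall in peat-based mix, using a surfactant-containing solvent formulation.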
# [2] = system: waterhemp (common waterhemp, Amaranthus rudis); details: for Plant response rating, Waterhemp: scale 0 to 100, 0 no effect, 100 complete control
# Outline: as §1
# [3] = system: lambsquarters (Chenopodium album); details: for Plant response rating, Lambsquarters: scale 0 to 100, 0 no effect, 100 complete control
# Outline: as §1
# [4] = system: velvetleaf (Abutilon theophrasti); details: for Plant response rating, Velvetleaf: scale 0 to 100, 0 no effect, 100 complete control
# Outline: as §1
# [5] = system: johnsongrass (Sorghum halepense); details: for Plant response rating, Johnsongrass: scale 0 to 100, 0 no effect, 100 complete control
# Outline: as §1
# [6] = system: foxtail, giant (giant foxtail, Setaria faberii); details: for Plant response rating, Foxtail, Giant: scale 0 to 100, 0 no effect, 100 complete control
# Outline: as §1
# [7] = system: pigweed (Amaranthus retroflexus); details: for Plant response rating, Pigweed: scale 0 to 100, 0 no effect, 100 complete control
# Outline: as §1
# soybean (Glycine max) = details: for Plant response rating, Soybean: scale 0 to 100, 0 no effect, 100 complete control
# Outline: as §1
# [8] = system: Galium (catchweed bedstraw, Galium aparine); details: for Plant response rating, Galium: scale 0 to 100, 0 no effect, 100 complete control
# Outline: as §1
# [9] = system: crabgrass, large (large crabgrass, Digitaria sanguinalis); details: for Plant response rating, Crabgrass, Large: scale 0 to 100, 0 no effect, 100 complete control
# Outline: as §1
# [10] = system: oilseed rape (Brassica napus); details: for Plant response rating, Oilseed Rape: scale 0 to 100, 0 no effect, 100 complete control
# Outline: as §1
# [11] = system: nutsedge, yellow (yellow nutsedge, Cyperus esculentus); details: for Plant response rating, Nutsedge, Yellow: scale 0 to 100, 0 no effect, 100 complete control
# Outline: as §1
# corn (Zea mays) = details: for Plant response rating, Corn: scale 0 to 100, 0 no effect, 100 complete control
# Outline: as §1
# [12] = system: ryegrass, Italian (Italian ryegrass, Lolium multiflorum); details: for Plant response rating, Ryegrass, Italian: scale 0 to 100, 0 no effect, 100 complete control
# Outline: as §1
# [13] = system: barnyardgrass (Echinochloa crus-galli); details: for Plant response rating, Barnyardgrass: scale 0 to 100, 0 no effect, 100 complete control
# Outline: as §1
# [14] = system: wheat (winter wheat, Triticum aestivum); details: for Plant response rating, Wheat: scale 0 to 100, 0 no effect, 100 complete control
# Outline: as §1
# [15] = system: morningglory (Ipomoea coccinea); details: for Plant response rating, Morningglory: scale 0 to 100, 0 no effect, 100 complete control
# Outline: as §1
# [16] = system: ragweed (common ragweed, Ambrosia elatior); details: for Plant response rating, Ragweed: scale 0 to 100, 0 no effect, 100 complete control
# Outline: as §1
# [17] = 31 g ai/ha, 0 is no effect, 100 is complete control
smiles,measurement,setting,value
CN1CC(c2ccc(F)c(F)c2)C(C(=O)Nc2ccccc2S(C)(=O)=O)C1=O (stereo not shown) [Compound 640],"Plant response rating (scale of 0 to 100), Blackgrass",[1]; [17],0
same,"Plant response rating, Blackgrass",[1]; 62 g ai/ha,0
same,"Plant response rating, Blackgrass",[1]; 125 g ai/ha,20
same,"Plant response rating, Blackgrass",[1]; 250 g ai/ha,50
same,"Plant response rating (scale of 0 to 100), Waterhemp",[2]; [17],55
same,"Plant response rating, Waterhemp",[2]; 62 g ai/ha,75
same,"Plant response rating, Waterhemp",[2]; 125 g ai/ha,70
same,"Plant response rating, Waterhemp",[2]; 250 g ai/ha,85
same,"Plant response rating (scale of 0 to 100), Lambsquarters",[3]; [17],25
same,"Plant response rating, Lambsquarters",[3]; 62 g ai/ha,35
same,"Plant response rating, Lambsquarters",[3]; 125 g ai/ha,50
same,"Plant response rating, Lambsquarters",[3]; 250 g ai/ha,70
same,"Plant response rating (scale of 0 to 100), Velvetleaf",[4]; [17],0
same,"Plant response rating, Velvetleaf",[4]; 62 g ai/ha,0
same,"Plant response rating, Velvetleaf",[4]; 125 g ai/ha,10
same,"Plant response rating, Velvetleaf",[4]; 250 g ai/ha,40
same,"Plant response rating (scale of 0 to 100), Johnsongrass",[5]; [17],0
same,"Plant response rating, Johnsongrass",[5]; 62 g ai/ha,0
same,"Plant response rating, Johnsongrass",[5]; 125 g ai/ha,0
same,"Plant response rating, Johnsongrass",[5]; 250 g ai/ha,40
same,"Plant response rating (scale of 0 to 100), Foxtail, Giant",[6]; [17],85
same,"Plant response rating, Foxtail, Giant",[6]; 62 g ai/ha,95
same,"Plant response rating, Foxtail, Giant",[6]; 125 g ai/ha,95
same,"Plant response rating, Foxtail, Giant",[6]; 250 g ai/ha,95
same,"Plant response rating (scale of 0 to 100), Pigweed",[7]; [17],40
same,"Plant response rating, Pigweed",[7]; 62 g ai/ha,50
same,"Plant response rating, Pigweed",[7]; 125 g ai/ha,70
same,"Plant response rating, Pigweed",[7]; 250 g ai/ha,80
same,"Plant response rating (scale of 0 to 100), Soybean",soybean (Glycine max); [17],0
same,"Plant response rating, Soybean",soybean (Glycine max); 62 g ai/ha,0
same,"Plant response rating, Soybean",soybean (Glycine max); 125 g ai/ha,0
same,"Plant response rating, Soybean",soybean (Glycine max); 250 g ai/ha,0
same,"Plant response rating (scale of 0 to 100), Galium",[8]; [17],98
same,"Plant response rating, Galium",[8]; 62 g ai/ha,80
same,"Plant response rating, Galium",[8]; 125 g ai/ha,85
same,"Plant response rating, Galium",[8]; 250 g ai/ha,90
same,"Plant response rating (scale of 0 to 100), Crabgrass, Large",[9]; [17],95
same,"Plant response rating, Crabgrass, Large",[9]; 62 g ai/ha,100
same,"Plant response rating, Crabgrass, Large",[9]; 125 g ai/ha,98
same,"Plant response rating, Crabgrass, Large",[9]; 250 g ai/ha,100
same,"Plant response rating (scale of 0 to 100), Oilseed Rape",[10]; [17],0
same,"Plant response rating, Oilseed Rape",[10]; 62 g ai/ha,0
same,"Plant response rating, Oilseed Rape",[10]; 125 g ai/ha,5
same,"Plant response rating, Oilseed Rape",[10]; 250 g ai/ha,80
same,"Plant response rating (scale of 0 to 100), Nutsedge, Yellow",[11]; [17],0
same,"Plant response rating, Nutsedge, Yellow",[11]; 62 g ai/ha,0
same,"Plant response rating, Nutsedge, Yellow",[11]; 125 g ai/ha,0
same,"Plant response rating, Nutsedge, Yellow",[11]; 250 g ai/ha,0
same,"Plant response rating (scale of 0 to 100), Corn",corn (Zea mays); [17],0
same,"Plant response rating, Corn",corn (Zea mays); 62 g ai/ha,0
same,"Plant response rating, Corn",corn (Zea mays); 125 g ai/ha,0
same,"Plant response rating, Corn",corn (Zea mays); 250 g ai/ha,0
same,"Plant response rating (scale of 0 to 100), Ryegrass, Italian",[12]; [17],0
same,"Plant response rating, Ryegrass, Italian",[12]; 62 g ai/ha,5
same,"Plant response rating, Ryegrass, Italian",[12]; 125 g ai/ha,5
same,"Plant response rating, Ryegrass, Italian",[12]; 250 g ai/ha,40
same,"Plant response rating (scale of 0 to 100), Barnyardgrass",[13]; [17],80
same,"Plant response rating, Barnyardgrass",[13]; 62 g ai/ha,90
same,"Plant response rating, Barnyardgrass",[13]; 125 g ai/ha,90
same,"Plant response rating, Barnyardgrass",[13]; 250 g ai/ha,95
same,"Plant response rating (scale of 0 to 100), Wheat",[14]; [17],0
same,"Plant response rating, Wheat",[14]; 62 g ai/ha,20
same,"Plant response rating, Wheat",[14]; 125 g ai/ha,45
same,"Plant response rating, Wheat",[14]; 250 g ai/ha,60
same,"Plant response rating (scale of 0 to 100), Morningglory",[15]; [17],0
same,"Plant response rating, Morningglory",[15]; 62 g ai/ha,0
same,"Plant response rating, Morningglory",[15]; 125 g ai/ha,0
same,"Plant response rating, Morningglory",[15]; 250 g ai/ha,0
same,"Plant response rating (scale of 0 to 100), Ragweed",[16]; [17],0
same,"Plant response rating, Ragweed",[16]; 62 g ai/ha,40
same,"Plant response rating, Ragweed",[16]; 125 g ai/ha,70
same,"Plant response rating, Ragweed",[16]; 250 g ai/ha,85
O=C1NCC(c2ccc(Br)cc2)C1C(=O)Nc1cccc(F)c1F (stereo not shown) [Compound 446],"Plant response rating, Blackgrass",[1]; 31 g ai/ha,0
same,"Plant response rating, Blackgrass",[1]; 62 g ai/ha,0
same,"Plant response rating, Blackgrass",[1]; 125 g ai/ha,50
same,"Plant response rating, Blackgrass",[1]; 250 g ai/ha,55
same,"Plant response rating, Waterhemp",[2]; 62 g ai/ha,100
same,"Plant response rating, Waterhemp",[2]; 125 g ai/ha,80
same,"Plant response rating, Waterhemp",[2]; 250 g ai/ha,98
same,"Plant response rating, Lambsquarters",[3]; 31 g ai/ha,60
same,"Plant response rating, Lambsquarters",[3]; 62 g ai/ha,50
same,"Plant response rating, Lambsquarters",[3]; 125 g ai/ha,55
same,"Plant response rating, Lambsquarters",[3]; 250 g ai/ha,95
same,"Plant response rating, Velvetleaf",[4]; 62 g ai/ha,0
same,"Plant response rating, Velvetleaf",[4]; 125 g ai/ha,10
same,"Plant response rating, Velvetleaf",[4]; 250 g ai/ha,30
same,"Plant response rating, Johnsongrass",[5]; 31 g ai/ha,20
same,"Plant response rating, Johnsongrass",[5]; 62 g ai/ha,40
same,"Plant response rating, Johnsongrass",[5]; 125 g ai/ha,50
same,"Plant response rating, Johnsongrass",[5]; 250 g ai/ha,65
same,"Plant response rating, Foxtail, Giant",[6]; 31 g ai/ha,85
same,"Plant response rating, Foxtail, Giant",[6]; 62 g ai/ha,90
same,"Plant response rating, Foxtail, Giant",[6]; 125 g ai/ha,90
same,"Plant response rating, Foxtail, Giant",[6]; 250 g ai/ha,95
same,"Plant response rating, Pigweed",[7]; 31 g ai/ha,50
same,"Plant response rating, Pigweed",[7]; 62 g ai/ha,75
same,"Plant response rating, Pigweed",[7]; 125 g ai/ha,80
same,"Plant response rating, Pigweed",[7]; 250 g ai/ha,85
same,"Plant response rating, Soybean",soybean (Glycine max); 62 g ai/ha,20
same,"Plant response rating, Soybean",soybean (Glycine max); 125 g ai/ha,10
same,"Plant response rating, Soybean",soybean (Glycine max); 250 g ai/ha,25
same,"Plant response rating, Galium",[8]; 31 g ai/ha,0
same,"Plant response rating, Galium",[8]; 62 g ai/ha,90
same,"Plant response rating, Galium",[8]; 125 g ai/ha,90
same,"Plant response rating, Galium",[8]; 250 g ai/ha,95
same,"Plant response rating, Crabgrass, Large",[9]; 31 g ai/ha,100
same,"Plant response rating, Crabgrass, Large",[9]; 62 g ai/ha,100
same,"Plant response rating, Crabgrass, Large",[9]; 125 g ai/ha,100
same,"Plant response rating, Crabgrass, Large",[9]; 250 g ai/ha,100
same,"Plant response rating, Oilseed Rape",[10]; 31 g ai/ha,0
same,"Plant response rating, Oilseed Rape",[10]; 62 g ai/ha,85
same,"Plant response rating, Oilseed Rape",[10]; 125 g ai/ha,90
same,"Plant response rating, Oilseed Rape",[10]; 250 g ai/ha,95
same,"Plant response rating, Nutsedge, Yellow",[11]; 31 g ai/ha,0
same,"Plant response rating, Nutsedge, Yellow",[11]; 62 g ai/ha,0
same,"Plant response rating, Nutsedge, Yellow",[11]; 125 g ai/ha,0
same,"Plant response rating, Nutsedge, Yellow",[11]; 250 g ai/ha,0
same,"Plant response rating, Corn",corn (Zea mays); 31 g ai/ha,0
same,"Plant response rating, Corn",corn (Zea mays); 62 g ai/ha,0
same,"Plant response rating, Corn",corn (Zea mays); 125 g ai/ha,0
same,"Plant response rating, Corn",corn (Zea mays); 250 g ai/ha,10
same,"Plant response rating, Ryegrass, Italian",[12]; 62 g ai/ha,0
same,"Plant response rating, Ryegrass, Italian",[12]; 125 g ai/ha,0
same,"Plant response rating, Ryegrass, Italian",[12]; 250 g ai/ha,45
same,"Plant response rating, Barnyardgrass",[13]; 31 g ai/ha,90
same,"Plant response rating, Barnyardgrass",[13]; 62 g ai/ha,90
same,"Plant response rating, Barnyardgrass",[13]; 125 g ai/ha,90
same,"Plant response rating, Barnyardgrass",[13]; 250 g ai/ha,95
same,"Plant response rating, Wheat",[14]; 62 g ai/ha,0
same,"Plant response rating, Wheat",[14]; 125 g ai/ha,0
same,"Plant response rating, Wheat",[14]; 250 g ai/ha,30
same,"Plant response rating, Morningglory",[15]; 31 g ai/ha,0
same,"Plant response rating, Morningglory",[15]; 62 g ai/ha,0
same,"Plant response rating, Morningglory",[15]; 125 g ai/ha,0
same,"Plant response rating, Morningglory",[15]; 250 g ai/ha,0
same,"Plant response rating, Ragweed",[16]; 31 g ai/ha,25
same,"Plant response rating, Ragweed",[16]; 62 g ai/ha,40
same,"Plant response rating, Ragweed",[16]; 125 g ai/ha,75
same,"Plant response rating, Ragweed",[16]; 250 g ai/ha,85
